Like-named read-outs stand apart in the source and are kept apart here.
Biological target: T1, human CB2 receptors (Homo sapiens, UniProt P34972)
T1 construct: expressed in transfected cells; membranes used
Experiment: Affinity for the human CB2 cannabinoid receptors: inhibition of [3H]-CP55940 binding to transfected CHO-K1 cell membranes
Conditions: [3H]-CP55940 1 nM, CHO-K1 membranes expressing human CB2, Cheng-Prusoff correction
Procedure: The affinity of the compounds of the invention for the human CB2 receptors is determined by measuring the inhibition of the binding of [^3H]-CP55940 to transfected CHO-K1 cell membrane preparations.
The cells are collected with 0.5 mM of EDTA and centrifuged at 500 g for 5 minutes at 4° C. The pellet is re-suspended in phosphate buffered saline medium (PBS) and centrifuged at 500 g for 5 minutes at 4° C. The pellet is re-suspended in a Tris 50 mM buffer medium at pH 7.4 and centrifuged at 500 g for 5 minutes at 4° C. The cells are lysed by sonication and centrifuged at 39,000 g for 10 minutes at 4° C. The pellet is re-suspended in the Tris 50 mM buffer medium at pH 7.4 and centrifuged at 50,000 g for 10 minutes at 4° C. The membranes obtained in this last pellet are stored at −80° C.
Measurement of the competitive inhibition of the binding of the [^3H]-CP55940 to the CB2 receptors is carried out in duplicate using 96-well polypropylene plates. The cell membranes (10 μg of proteins/well) are incubated with the [^3H]-CP55940 (1 nM) for 60 minutes at 25° C. in a Tris-HCl 50 mM buffer medium, pH 7.4, comprising 0.1% bovine serum albumin (BSA), 5 mM of MgCl2, and 50 μg/ml of bacitracin.
The filters are washed with Tris-HCl 50 mM buffer, pH 7.4 at 0-4° C. and the radioactivity present is determined using a counter (Packard Top Count).
The specific binding is obtained by subtracting the non-specific binding (determined in the presence of 0.1 μM of WIN55212-2 from the total binding). The data are analyzed by computer-assisted non-linear regression (MDL). For each test, a Cheng-Prusoff correction is made in order to convert the IC50 to the inhibition constant, Ki.
where [L] is the concentration of the radioligand used in the test and Kd is the radioligand equilibrium disassociation constant.

T1 sequence (P34972 whole entry): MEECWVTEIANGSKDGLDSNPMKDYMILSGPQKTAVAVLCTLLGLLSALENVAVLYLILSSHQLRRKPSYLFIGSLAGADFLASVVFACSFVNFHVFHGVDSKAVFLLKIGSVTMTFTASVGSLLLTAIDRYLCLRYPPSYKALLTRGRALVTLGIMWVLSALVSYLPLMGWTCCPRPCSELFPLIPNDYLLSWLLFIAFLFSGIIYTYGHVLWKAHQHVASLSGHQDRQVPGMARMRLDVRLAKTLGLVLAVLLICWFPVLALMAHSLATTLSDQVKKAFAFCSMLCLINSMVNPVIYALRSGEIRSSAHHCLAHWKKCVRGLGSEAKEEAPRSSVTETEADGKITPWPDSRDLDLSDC

Row | SMILES | Ki (read-out: Ki < 0.5 μM) [nM] | Ki (read-out: Ki < 5 μM) [nM]
1 | CC(C)(C)C(=O)Nc1ccc(CCOC(=O)c2ccc3c(c2)C(C)(C)CCC3(C)C)cc1 [Example 57] | < 500 | < 5000
2 | CC(C)CC(=O)Nc1ccc(CCOC(=O)c2ccc3c(c2)C(C)(C)CCC3(C)C)cc1 [Example 58] | < 500 | < 5000
3 | CC(C)(C)CC(=O)Nc1ccc(CCOC(=O)c2ccc3c(c2)C(C)(C)CCC3(C)C)cc1 [Example 59] | < 500 | < 5000
4 | CCCCC(=O)Nc1ccc(CCOC(=O)c2ccc3c(c2)C(C)(C)CCC3(C)C)cc1 [Example 60] | < 500 | < 5000
5 | C=CC(=O)Nc1ccc(CCOC(=O)c2ccc3c(c2)C(C)(C)CCC3(C)C)cc1 [Example 61] | < 500 | < 5000
6 | C=CCCC(=O)Nc1ccc(CCOC(=O)c2ccc3c(c2)C(C)(C)CCC3(C)C)cc1 [Example 62] | < 500 | < 5000
7 | CC1(C)CCC(C)(C)c2cc(C(=O)OCCc3ccc(NC(=O)C4CC4)cc3)ccc21 [Example 63] | < 500 | < 5000
8 | CC1(C)CCC(C)(C)c2cc(C(=O)OCCc3ccc(NC(=O)C4CCCC4)cc3)ccc21 [Example 64] | < 500 | < 5000
9 | CC1(C)CCC(C)(C)c2cc(C(=O)OCCc3ccc(NC(=O)C4CCCCC4)cc3)ccc21 [Example 65] | < 500 | < 5000
10 | CC1(C)CCC(C)(C)c2cc(C(=O)OCCc3ccc(NC(=O)CC4CCCC4)cc3)ccc21 [Example 66] | < 500 | < 5000
11 | CC1(C)CCC(C)(C)c2cc(C(=O)OCCc3ccc(NC(=O)Cc4ccccc4)cc3)ccc21 [Example 67] | < 500 | < 5000
12 | CC1(C)CCC(C)(C)c2cc(C(=O)OCCc3ccc(NC(=O)Cc4cccs4)cc3)ccc21 [Example 68] | < 500 | < 5000
13 | CC1(C)CCC(C)(C)c2cc(C(=O)OCCc3ccc(NS(C)(=O)=O)cc3)ccc21 [Example 69, 2-{4-[(methylsulphonyl)amino]phenyl}ethyl 5,5,8,8-tetramethyl-5,6,7,8-tetrahydronaphthalene-2-carboxylate] | < 500 | < 5000
14 | CCS(=O)(=O)Nc1ccc(CCOC(=O)c2ccc3c(c2)C(C)(C)CCC3(C)C)cc1 [Example 70] | < 500 | < 5000
15 | CCCS(=O)(=O)Nc1ccc(CCOC(=O)c2ccc3c(c2)C(C)(C)CCC3(C)C)cc1 [Example 71] | < 500 | < 5000
16 | CC1(C)CCC(C)(C)c2cc(C(=O)OCCc3ccc(NS(=O)(=O)C4CC4)cc3)ccc21 [Example 72] | < 500 | < 5000
17 | CC(C)NC(=O)Nc1ccc(CCOC(=O)c2ccc3c(c2)C(C)(C)CCC3(C)C)cc1 [Example 73] | < 500 | < 5000
18 | CC(C)(C)NC(=O)Nc1ccc(CCOC(=O)c2ccc3c(c2)C(C)(C)CCC3(C)C)cc1 [Example 74] | < 500 | < 5000
19 | CC1(C)CCC(C)(C)c2cc(C(=O)OCCc3ccc(NC(=O)NCc4ccco4)cc3)ccc21 [Example 75] | < 500 | < 5000
20 | CCNC(=S)Nc1ccc(CCOC(=O)c2ccc3c(c2)C(C)(C)CCC3(C)C)cc1 [Example 76, 2-(4-{[(ethylamino)carbonothioyl]amino}phenyl)ethyl 5,5,8,8-tetramethyl-5,6,7,8-tetrahydronaphthalene-2-carboxylate] | < 500 | < 5000
21 | CCCNC(=S)Nc1ccc(CCOC(=O)c2ccc3c(c2)C(C)(C)CCC3(C)C)cc1 [Example 77] | < 500 | < 5000

Row | SMILES | Ki (read-out: Ki < 0.5 μM) [nM] | Ki (read-out: Ki < 5 μM) [nM]
22 | C=CCNC(=S)Nc1ccc(CCOC(=O)c2ccc3c(c2)C(C)(C)CCC3(C)C)cc1 [Example 78] | < 500 | < 5000
23 | COCCNC(=S)Nc1ccc(CCOC(=O)c2ccc3c(c2)C(C)(C)CCC3(C)C)cc1 [Example 79] | < 500 | < 5000
24 | CC1(C)CCC(C)(C)c2cc(C(=O)OCCc3ccc(NC(=S)NCc4ccco4)cc3)ccc21 [Example 80] | < 500 | < 5000
25 | CCNC(=O)Nc1ccc(CCOC(=O)c2ccc3c(c2)C(C)(C)CCC3(C)C)cc1 [Example 81] | < 500 | < 5000
26 | CCC(C)NC(=O)Nc1ccc(CCOC(=O)c2ccc3c(c2)C(C)(C)CCC3(C)C)cc1 (stereo not drawn) [Example 82] | < 500 | < 5000
27 | CCCCNC(=O)Nc1ccc(CCOC(=O)c2ccc3c(c2)C(C)(C)CCC3(C)C)cc1 [Example 83] | < 500 | < 5000
28 | CC1(C)CCC(C)(C)c2cc(C(=O)OCCc3ccc(NC(=O)NCc4ccccc4)cc3)ccc21 [Example 84] | < 500 | < 5000
29 | COCC(=O)Nc1ccc(CCOC(=O)c2ccc3c(c2)C(C)(C)CCC3(C)C)cc1 [Example 85] | < 500 | < 5000
30 | COCCC(=O)Nc1ccc(CCOC(=O)c2ccc3c(c2)C(C)(C)CCC3(C)C)cc1 [Example 86] | < 500 | < 5000
31 | CC1(C(=O)Nc2ccc(CCOC(=O)c3ccc4c(c3)C(C)(C)CCC4(C)C)cc2)CC1 [Example 87] | < 500 | < 5000
32 | CC1CC1C(=O)Nc1ccc(CCOC(=O)c2ccc3c(c2)C(C)(C)CCC3(C)C)cc1 (stereo not drawn) [Example 88] | < 500 | < 5000
33 | CC1(C)CCC(C)(C)c2cc(C(=O)OCCc3ccc(NC(=O)C4CC4(C)C)cc3)ccc21 (stereo not drawn) [Example 89] | < 500 | < 5000
34 | CC1(C)CCC(C)(C)c2cc(C(=O)OCCc3ccc(NC(=O)C4CC45CCC5)cc3)ccc21 (stereo not drawn) [Example 90] | < 500 | < 5000
35 | CC1(C)CCC(C)(C)c2cc(C(=O)OCCc3ccc(NC(=O)CC4CC4)cc3)ccc21 [Example 91] | < 500 | < 5000
36 | CC1(C)CCC(C)(C)c2cc(C(=O)OCCc3ccc(NC(=O)C4CCOC4)cc3)ccc21 (stereo not drawn) [Example 92] | < 500 | < 5000
37 | CC1(C)CCC(C)(C)c2cc(C(=O)OCCc3ccc(NC(=O)Cc4ccco4)cc3)ccc21 [Example 93] | < 500 | < 5000
38 | CCCC(=O)Nc1ccc(CCOC(=O)c2ccc3c(c2)C(C)(C)CCC3(C)C)cc1 [Example 94] | < 500 | < 5000
39 | CCC(C)C(=O)Nc1ccc(CCOC(=O)c2ccc3c(c2)C(C)(C)CCC3(C)C)cc1 (stereo not drawn) [Example 95] | < 500 | < 5000
40 | CC1(C)CCC(C)(C)c2cc(C(=O)OCCc3ccc(NC(=O)NC4CC4)cc3)ccc21 [Example 96] | < 500 | < 5000
41 | CC1(C)CCC(C)(C)c2cc(C(=O)OCCc3ccc(NC(=O)NC4CCC4)cc3)ccc21 [Example 97] | < 500 | < 5000
42 | CC1(C)CCC(C)(C)c2cc(-c3nc(CCc4ccc(NC(=O)C5CCC5)cc4)no3)ccc21 [Example 98] | < 500 | < 5000
